Source: paper PMC3927474, “Whole body synthesis rates of DHA from α-linolenic acid are greater than brain DHA accretion and uptake rates in adult rats” (Journal of Lipid Research, 2014)

Tests used:
[1] = Source text: At 15 weeks postweaning, rats were subjected to surgery to implant a catheter into their jugular vein. The animals were anesthetized using isoflurane inhalation (5% induction, 1–3% maintenance). Before the incision was made, hair was shaved from the incision site and the site was sterilized with iodine and ethanol. A transverse incision was made anterior to the upper thorax. The jugular vein was located by blunt dissection. The vein was isolated and tied off. The vein was then nicked and a catheter (PE 50; Intramedic, Sparks, MD) with a 3.5 cm silastic tubing end (VWR, Mississauga, ON, Canada) was inserted into the vein. The catheter was secured using 3.0 silk sutures and a 16 gauge Angiocath (Becton Dickinson, Mississauga, ON, Canada) was used to guide the catheter subcutaneously to a site outside the body near the scapula. An incision was made at this site and the catheter was tucked beneath the skin at the incision site. The incision site was stapled to protect the catheter from the rats. The incision site on the chest was closed with 4.0 silk sutures and the rats were allowed to recover from the anesthetic under a heat lamp. Approximately 24 h after the surgery, the tail vein of the rats was cannulated with a 24 gauge Angiocath (Becton Dickinson). While the rats were restrained, the staple closing the incision site on the scapula was removed and the jugular vein catheter was connected to a longer polyethylene catheter. The rats were then placed in an infusion box that contained food, a chew toy, and bedding from the rat's cage. The tail vein catheter was then connected to an infusion line. Rats were able to move freely within the infusion box throughout the infusion.
Modified from the method of Rapoport, Igarashi, and Gao ([38]); 4.5 μmol/100 g body weight of ^2H-ALA (^2H14-ALA, purity >95% confirmed by GC-FID and GC-MS; Cayman Chemical, Ann Arbor, MI) was infused into the tail vein for 3 h. To prepare the infusate, a known amount of ^2H-ALA was dissolved in 5 mM HEPES buffer (pH 7.4) containing 50 mg/ml fatty acid-free BSA. The infusate was mixed by sonication at 37°C. An infusion pump (Harvard Apparatus PHD 2000; Holliston, MA) was used to infuse 3.78 ml of tracer solution at a constant rate of 0.021 ml/min for 3 h. Immediately before the infusion and every 30 min during the infusion 0.2 ml of blood was drawn from the jugular vein. The jugular vein catheter was flushed with heparinized saline (5% by volume) after every blood draw to prevent coagulation in the line. After 180 min of the infusion, 1 ml of blood was drawn from the jugular vein and the animals were euthanized with a lethal injection of T-61 into the tail vein. All blood samples were centrifuged for 10 min (PC-100 microcentrifuge; Diamed, ON, Canada) and the plasma was collected and stored at −80°C.
Plasma volume was determined using the method of Schreihofer, Hair, and Stepp as modified by Gao et al.([24], [39]). Briefly, a known amount of Evans Blue dye was injected into the tail veins of the rats. After 15 min, 1 ml of blood was drawn from the jugular vein, twice. The plasma was collected as described above, and 0.1 ml of plasma was diluted into 1 ml of saline. Absorbance at 604 nm was measured with a Nanodrop 1000 and by comparing the absorbance to a standard curve, the concentration of the dye was determined.
Fifty microliters of plasma were added to a test tube which contained known amounts of unesterified 17:0 standard and di-17:0 phosphatidylcholine standard. Lipids were extracted from the plasma using the method of Folch, Lees, and Sloane Stanley ([28]), as described above.
Thin layer chromatography (TLC) was used to separate esterified and unesterified lipids. The TLE was dried under N2 and reconstituted in 250 μl chloroform. TLC plates (TLC silica gel 60, EMD) that were washed in chloroform and methanol (2:1) were activated by heat at 100°C for 1 h.

[2] = Brain DHA uptake study: ^14C-DHA infusion; assay type: in vivo, rat; details: for Brain DHA uptake rate: 5 min ^14C-DHA infusion, 15 wk diet
Description: At 15 weeks postweaning, a surgery was performed to implant a catheter into the jugular vein (described above). […] After 5 min of ^14C-DHA infusion rats were euthanized by high-energy head-focused microwave fixation (13.5 kW for 1.6 s). The brains were then removed, dissected sagittally and stored at −80°C until analysis.
A known portion of the plasma TLE was then added to a scintillation vial with 5 ml of scintillation cocktail (GE Healthcare Life Sciences, Baie d'Urfe, QC, Canada). Radioactivity was measured using liquid scintillation counting to determine the plasma AUC for radioactivity. For plasma samples drawn at time 0 s of the infusion, the unesterified lipids were isolated by TLC and quantified using GC-FID (described above).
Radioactivity was quantified by a Packard TRI-CARB2900TR liquid scintillation analyzer (Packard, Meriden, CT) with a detector efficiency of 48.8%. Radioactivity was expressed in disintegrations per minute; then converted to nCi.
Brain hemispheres were homogenized and lipids extracted as described above. A known portion of the TLE was then added to a scintillation tube with 5 ml of scintillation cocktail. Radioactivity was quantified using liquid scintillation counting.
To determine the brain DHA uptake rate, the incorporation coefficient for DHA from the unesterified plasma pool into the brain total lipid pool is ([26]):(Eq. 5) k^*=cbr*(T)/∫0Tcpl*dt where cbr*(T) is the total brain radioactivity at the end of the infusion and ∫0Tcpl*dt is the plasma radioactivity AUC.
Multiplying the incorporation coefficient by the concentration of plasma unesterified DHA (cpl) allows for the determination of the brain DHA uptake rate:(Eq. 6) Jin=k^*cpl

| Structure (SMILES) | Reduction of DHA synthesis by 2% dietary DHA ([1]; synthesis rate not quantifiable in DHA-fed rats) | Brain DHA uptake rate [2] [nmol/day] | Uptake rate of DHA into the brain, DHA-fed relative to ALA-fed rats ([2]; rat, in vivo) [fold] | Mean plasma [^2H-ALA]unesterified during infusion ([1]; 4.5 μmol/100 g ^2H-ALA i.v. over 3 h) [nmol/mL] | Smax,i (maximum first derivative) ([1]; 15 wk diet, 3 h ^2H-ALA infusion, n = 4) [nmol/min] | Daily Secretion Rate (daily DHA synthesis rate) ([1]; 15 wk diet, n = 4) [nmol/day] | FDHA (turnover rate of esterified plasma DHA) ([1]; 15 wk diet, n = 4) [min⁻¹] | Jsyn (synthesis rate of DHA from ALA) ([1]; 15 wk diet, n = 4) [nmol/min] | k1,DHA (synthesis-secretion coefficient for DHA synthesis from ALA) ([1]; 15 wk diet, n = 4) [mL/min] | DHA synthesis rate relative to brain DHA uptake rate ([1]; ALA-fed rats, infusion synthesis vs ^14C-DHA uptake) | DHA synthesis rate from ALA (steady-state infusion) ([1]; at 15 weeks postweaning) [µmol/day] | Brain DHA uptake rate ([2]; listed as ALA diet) [nmol/day] |
| --- | --- | --- | --- | --- | --- | --- | --- | --- | --- | --- | --- | --- |
| CC/C=C\C/C=C\C/C=C\C/C=C\C/C=C\C/C=C\CCC(=O)O [DHA, Docosahexaenoic acid] | greater than 30 fold | 858.6 ± 74.8 | ~2 |  |  |  |  |  |  |  |  |  |
| CC/C=C\C/C=C\C/C=C\CCCCCCCC(=O)O [ALA, α-linolenic acid] |  | 467.6 ± 93.7 |  | 2.5 ± 0.5 | 0.339 ± 0.135 | 1452 ± 395 | 0.0002 ± 4e-05 | 1.008 ± 0.274 | 0.131 ± 0.04 | approximately 3 fold | 1.5 | 468 |
